Assay results: PMC7142633, “Impact of B-Ring Substitution and Acylation with Hydroxy Cinnamic Acids on the Inhibition of Porcine α-Amylase by Anthocyanin-3-Glycosides” (Foods, 2020)

Legend:
[1] = biological target: T1, α-amylase from porcine pancreas (Sus scrofa, UniProt P00690); assay: Isothermal titration calorimetry, single injection, GalG2CNP conversion; type: biochemical; conditions: 100 µM inhibitor, 0.95 mM substrate, 37 °C
T1 construct: A saline suspension of α-amylase from porcine pancreas; purchased Sigma Aldrich (Steinheim, Germany) Lot #SLBN9170V (catalogue number not given); host or cells: porcine pancreas (tissue-derived)
T1 sequence (P00690 16-511): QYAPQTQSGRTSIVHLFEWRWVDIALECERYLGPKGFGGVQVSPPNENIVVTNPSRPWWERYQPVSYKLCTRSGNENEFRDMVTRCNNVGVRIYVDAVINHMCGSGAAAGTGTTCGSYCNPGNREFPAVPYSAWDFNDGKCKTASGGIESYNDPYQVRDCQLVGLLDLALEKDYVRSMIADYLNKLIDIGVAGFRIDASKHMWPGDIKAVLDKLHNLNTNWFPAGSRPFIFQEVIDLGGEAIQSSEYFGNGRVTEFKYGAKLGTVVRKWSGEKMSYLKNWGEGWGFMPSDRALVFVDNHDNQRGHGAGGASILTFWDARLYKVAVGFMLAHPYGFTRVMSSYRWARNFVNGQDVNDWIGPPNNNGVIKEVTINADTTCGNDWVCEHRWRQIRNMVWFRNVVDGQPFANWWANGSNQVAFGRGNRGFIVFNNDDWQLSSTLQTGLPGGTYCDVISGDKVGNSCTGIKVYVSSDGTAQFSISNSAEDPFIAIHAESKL
Procedure: To evaluate the inhibitory strength of 100 µM anthocyanin-3-glucosides and black carrot anthocyanins, GalG2CNP conversion to CNP was monitored by the released heat. According to the previous study, ITC measurements were carried out in a single injection experiment set-up on a MICROCALTM PEAQ-ITC calorimeter (S/N MAL1188053, Malvern Panalytical Almelo, Netherlands). Following an equilibration time of 10 min, 1 µL α-amylase (1 µM in 50 mM MES^+ buffer) was added to 0.95 mM of the substrate with or without 100 µM of the phenolic inhibitor in the cell (Vcell = 0.207 mL). The temperature was maintained at 37 °C and the sample was stirred at 750 rpm throughout. The feedback/gain mode was set to high. The resulting heat profile was transformed and the conversion rate was plotted against the substrate concentration [S] by an origin routine template provided by Malvern® for Origin version 7.

[2] = biological target: porcine pancreatic α-amylase; parameters: method as in doi:10.1016/j.jff.2015.11.042; conditions: cited from earlier work

## COc1cc(-c2[o+]c3cc(O)cc(O)c3cc2O[C@@H]2O[C@H](CO)[C@@H](O)[C@H](O)[C@H]2O)ccc1O [Peo-glc, peonidin-3-glucoside]
[1]
  inhibitory strength by ITC (thermogram, Michaelis Menten plot): Mlv-3-glc > Cyd-3-glc > Dpd-3-glc~Peo-3-glc
[2]
  IC50: 75 ± 7 µM
  inhibition type: competitive inhibition type
